Test results: paper PMC5054527, “Mechanism of high affinity inhibition of the human urate transporter URAT1” (Scientific Reports, 2016)

How the values were obtained:
human URAT1 = molecular target: T1, human URAT1 (Homo sapiens, UniProt Q96S37); experiment: ^3H-RDEA3170 URAT1 membrane binding assay
T1 construct: hURAT1 and rURAT1 are 553 amino acid proteins with 12 transmembrane segments; expressed in transfected cells; host or cells: URAT1-transfected cells (HEK-293T per the transfection section)
T1 sequence (Q96S37 1-553): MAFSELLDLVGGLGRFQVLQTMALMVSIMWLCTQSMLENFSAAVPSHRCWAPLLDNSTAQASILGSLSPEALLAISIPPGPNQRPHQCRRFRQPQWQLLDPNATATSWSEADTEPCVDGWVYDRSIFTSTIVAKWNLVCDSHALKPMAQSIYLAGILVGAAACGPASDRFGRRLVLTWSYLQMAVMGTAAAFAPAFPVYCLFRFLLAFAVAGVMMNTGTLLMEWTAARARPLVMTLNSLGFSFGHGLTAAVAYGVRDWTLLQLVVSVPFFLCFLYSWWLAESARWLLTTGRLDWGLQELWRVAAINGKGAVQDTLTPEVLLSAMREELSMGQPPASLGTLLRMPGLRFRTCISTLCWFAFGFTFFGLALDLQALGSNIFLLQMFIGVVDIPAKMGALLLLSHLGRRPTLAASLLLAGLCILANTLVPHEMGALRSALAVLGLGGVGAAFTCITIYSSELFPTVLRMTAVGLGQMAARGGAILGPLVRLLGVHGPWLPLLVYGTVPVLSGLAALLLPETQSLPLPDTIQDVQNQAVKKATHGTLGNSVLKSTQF
Method: (§1) Membranes were prepared from URAT1-transfected cells. […] Cells were lysed with 100 strokes in a dounce homogenizer using a tight-fitting “B” stem. Lysates were transferred to 1.5 ml Eppendorf tubes and centrifuged at 250 rcf for 5 minutes at 2 °C, and supernatants were transferred to fresh tubes and centrifuged again at 18,000 rcf for 20 minutes at 2 °C. The pellets (membrane fractions) were resuspended in 1 ml of ice-cold binding buffer containing protease inhibitors and frozen at −80 °C. Protein was measured using the Bio-Rad protein assay dye reagent concentrate.
(§2) To initiate binding, membranes at 2.5 μg total protein were incubated with ^3H-RDEA3170 for 30 minutes at room temperature. […] The plates were then subjected to scintillation counting. All samples were assayed in triplicate.

rat URAT1 = molecular target: T2, rat URAT1 (Rattus norvegicus, UniProt Q3ZAV1); experiment: ^3H-RDEA3170 URAT1 membrane binding assay; conditions: 500 nM ^3H-RDEA3170; membranes from transfected cells
T2 construct: hURAT1 and rURAT1 are 553 amino acid proteins with 12 transmembrane segments; expressed in transfected cells; host or cells: URAT1-transfected cells (HEK-293T per the transfection section)
T2 sequence (Q3ZAV1 whole entry): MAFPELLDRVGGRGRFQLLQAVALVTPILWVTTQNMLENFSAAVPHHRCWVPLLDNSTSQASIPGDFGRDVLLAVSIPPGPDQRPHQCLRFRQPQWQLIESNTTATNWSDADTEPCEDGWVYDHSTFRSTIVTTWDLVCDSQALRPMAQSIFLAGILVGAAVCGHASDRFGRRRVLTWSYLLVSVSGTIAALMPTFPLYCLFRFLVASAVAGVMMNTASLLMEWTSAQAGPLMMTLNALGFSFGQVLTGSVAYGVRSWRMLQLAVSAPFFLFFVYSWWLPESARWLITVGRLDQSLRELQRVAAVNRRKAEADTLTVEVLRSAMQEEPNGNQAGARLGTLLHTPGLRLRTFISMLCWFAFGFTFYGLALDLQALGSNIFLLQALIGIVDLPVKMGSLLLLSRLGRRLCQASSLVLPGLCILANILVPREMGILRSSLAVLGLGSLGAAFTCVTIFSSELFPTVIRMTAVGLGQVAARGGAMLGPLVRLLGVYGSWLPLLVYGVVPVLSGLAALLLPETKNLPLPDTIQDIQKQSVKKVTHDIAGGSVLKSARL
Method: as §1, §2

displacement of ^3H-RDEA3170 binding to hURAT1 (human URAT1; human URAT1 membranes, 10 nM ^3H-RDEA3170)	binding of probe to human URAT1 membranes (human URAT1; 500 nM ^3H-RDEA3170, membranes from transfected cells)	binding of probe to rat URAT1 membranes (rat URAT1)	Structure (SMILES)
displace binding of the probe			CCCN(CCC)S(=O)(=O)c1ccc(C(=O)O)cc1 [probenecid]
	binds to human URAT1	not rat URAT1	CC(C)(Sc1ccncc1-c1ccc(C#N)c2ccccc12)C(=O)O [^3H-RDEA3170, 2-((3-(4-cyanonaphthalen-1-yl)pyrindin-4-yl)thio)-2-methylpropanoic acid]
